In experiment [1] the target is T1, PDC-109 (Bos taurus, UniProt P02784).
T1 construct: native, purified from bull seminal plasma; 109 residues, 23-residue N-terminal stretch plus two Fn-II domains; mixture of glycoforms BSP-A1 and BSP-A2; polydisperse aggregate in solution
T1 sequence (P02784 26-134): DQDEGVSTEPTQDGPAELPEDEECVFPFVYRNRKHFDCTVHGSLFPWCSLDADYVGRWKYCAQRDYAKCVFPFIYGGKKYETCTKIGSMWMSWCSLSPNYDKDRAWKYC
Nature of the experiment: isothermal titration calorimetry, one set of sites model. The settings on record: read-out: K a×10^-5 (M^-1) (converted). It counts as binding. An excerpt:
isothermal titration calorimetry, one set of sites model on PDC-109
(Isothermal titration calorimetry measures the heat released or taken up as one component is titrated into another.)

In experiment [2] the target is T1, PDC-109. Nature of the experiment: isothermal titration calorimetry, two sets of sites model. The settings on record: 25 °C; stronger site of two-site fit (n = 0.9), assigned to micelles; acyl chain of lipid not given; read-out: K a (converted). Format: binding.

The results in this text go back to article PMC3193528, “Isothermal Titration Calorimetric Studies on the Interaction of the Major Bovine Seminal Plasma Protein, PDC-109 with Phospholipid Membranes” (PLoS ONE, 2011).

`CCCCCCCCCCCCCC(=O)OC[C@H](COP(=O)([O-])OCC[N+](C)(C)C)OC(=O)CCCCCCCCCCCCC` [DMPC]: on PDC-109 [1], the Kd was 2.44 µM. As to Lyso-PC, the Kd at PDC-109 [2] was 1.43 µM.

In the case of `CCCCCCCCCCCCCC(=O)OC[C@H](COP(=O)(O)OCC(O)CO)OC(=O)CCCCCCCCCCCCC` (stereo partly shown) [DMPG], on PDC-109 [1], the Kd was 38.5 µM. Consider `CCCCCCCCCCCCCCCC(=O)OC[C@H](COP(=O)([O-])OCC[N+](C)(C)C)OC(=O)CCCCCCCCCCCCCCC` [DPPC], for which the Kd on PDC-109 [1] is 7.69 µM.
